According to patent US20220226334A1, “ANTIBODY CONJUGATE AND APPLICATION OF PHARMACEUTICAL COMPOSITION THEREOF” (SHANGHAI FUDAN-ZHANGJIANG BIO-PHARMACEUTICAL CO., LTD., priority 2019, published 2022):
Where two headings read alike, the source gives them in different places. Where a SMILES comes first, the peptide text is derived from it. [ ]: non-standard residue; d: D form. The star is where a group is joined. Dolaproine = CO[C@@H]([C@@H]1CCCN1)[C@@H](C)C(=O)O; Dil = CC[C@H](C)[C@H](NC)[C@@H](CC(=O)O)OC; X1 = C[C@@H](N*)[C@@H](O)c1ccccc1; NMeV = CN[C@H](C(=O)O)C(C)C

Assays:
[1] = system: Hodgkin lymphoma cells L428; assay: In vitro killing of L428 cells (AlamarBlue), single drugs, MDR1 inhibitor, combinations
Procedure: Cell proliferation method was used to investigate the killing effect of drugs on cells. L428 cells were inoculated in 96-well cell culture plates at 5×10^4 cell/mL, i.e., 5000 cells per well. Doxorubicin was diluted to 259.5 ng/mL, 129.8 ng/mL, 64.88 ng/mL, 32.44 ng/mL, 21.63 ng/mL, 14.42 ng/mL, 9.611 ng/mL, 3.844 ng/mL, 1.538 ng/mL using cell culture medium, for a total of 9 concentrations. Serial dilutions of Doxorubicin were added to the culture plates of the seeded plates and incubated for 77±2 hours at 37° C. in a 5% CO2 incubator. The samples were stained with AlamarBlue fluorescent dye and incubated at 37° C. in a 5% CO2 incubator for 19±2 hours. Readings were performed at wavelength of 50 nm (excitation)/590 nm (emission). The IC50 value of Doxorubicin was calculated by fitting it with four-parameter equation.
Calcusyn, the software for calculating the combination index, was chosen to calculate the CI of the combination index at different killing levels,

[2] = system: Hodgkin lymphoma cells L540; assay: In vitro killing of L540 cells, single drugs and combinations; format: cell-based
Procedure: (§1) After the sample was added, it was cultured in 5% CO2 at 37° C. for 77±2 hours, stained with AlamarBlue fluorescent dye, cultured for 19±2 hours, and read at 530 nm (excitation)/590 nm (emission). The IC50 value of the semi-inhibitory concentration of each sample was calculated by fitting with the computer's four-parameter equation software.
(§2) Cell proliferation method was used to investigate the killing effect of drugs on cells.

[3] = system: Karpas299 cells; assay: In vitro killing of Karpas299 cells (AlamarBlue), single drugs and combinations; format: cell-based, human
Procedure: as §1, §2

[4] = system: Hodgkin lymphoma cells L428; conditions: known in the art; cited from earlier work
[5] = biological target: MDR1 (multidrug resistance gene 1 product, CD243, ABC B1) on the cell surface (UniProt P08183); assay: flow cytometry, PE-labelled UIC2 on Karpas 299 cells (cells other than L428 did not express MDR1); PBS as negative control
[6] = biological target: MDR1 (multidrug resistance gene 1 product, CD243, ABC B1) on the cell surface (UniProt P08183); assay: flow cytometry, PE-labelled UIC2 on HH cells (cells other than L428 did not express MDR1); PBS as negative control
[7] = biological target: MDR1 (multidrug resistance gene 1 product, CD243, ABC B1) on the cell surface (UniProt P08183); assay: flow cytometry, PE-labelled UIC2 on L428 cells (text: L428 specifically expressed MDR1 on the surface); PBS as negative control
[8] = biological target: MDR1 (multidrug resistance gene 1 product, CD243, ABC B1) on the cell surface (UniProt P08183); assay: flow cytometry, PE-labelled UIC2 on L540 cells (cells other than L428 did not express MDR1); PBS as negative control
[9] = Homo sapiens, L-428, read-out: IC50 of single drug
[10] = Homo sapiens, L-540, L540, Tables 8 and 13, read-out: IC50 of single drug
[11] = Homo sapiens, KARPAS-299, Karpas299 cells, Table 13, read-out: IC50 of single drug

Molecule	IC50 [1, 9] [µM]	IC50 [2, 10] [µM]	IC50 [3, 11] [µM]	also measured
O=P1(N(CCCl)CCCl)NCCCO1 (stereo not shown) [Cyclophosphamide]	590			IC50 ([2]; Homo sapiens, L-540, read-out: IC50 of single drug): 121 µM; IC50 ([3]; Homo sapiens, KARPAS-299, read-out: IC50 of single drug): 385 µM
CN(C)/N=N/c1[nH]cnc1C(N)=O [Dacarbazine]	178	31.3		
COc1cccc2c1C(=O)c1c(O)c3c(c(O)c1C2=O)C[C@@](O)(C(=O)CO)C[C@@H]3O[C@H]1C[C@H](N)[C@H](O)[C@H](C)O1 [Doxorubicin]	0.0278	0.0585	0.0405	
COc1cc([C@@H]2c3cc4c(cc3[C@@H](O[C@@H]3O[C@@H]5CO[C@@H](C)O[C@H]5[C@H](O)[C@H]3O)[C@H]3COC(=O)[C@H]23)OCO4)cc(OC)c1O [Etoposide]	54.2	30.1	64.1	
CC[C@H](C)[C@@H]([C@@H](CC(=O)N1CCC[C@H]1[C@H](OC)[C@@H](C)C(=O)N[C@H](C)[C@@H](O)c1ccccc1)OC)N(C)C(=O)[C@@H](NC(=O)[C@@H](NC)C(C)C)C(C)C [MMAE] (H-[NMeV]V[Dil][Dolaproine]-X1)				Sensitivity of L428 to the small molecule (in words) [4]: sensitive
C[C@]12C=CC(=O)C=C1CC[C@@H]1[C@@H]2C(=O)C[C@@]2(C)[C@H]1CC[C@]2(O)C(=O)CO [Prednisone]	113	98.5	187	
CNNCc1ccc(C(=O)NC(C)C)cc1 [Procarbazine]	500	24.7	26.9	
CC[C@]1(O)C[C@H]2CN(CCc3c([nH]c4ccccc34)[C@@](C(=O)OC)(c3cc4c(cc3OC)N(C=O)[C@H]3[C@@](O)(C(=O)OC)[C@H](OC(C)=O)[C@]5(CC)C=CCN6CC[C@]43[C@@H]65)C2)C1 [Vincristine]	0.0281	0.000772	0.0185	
Bleomycin				IC50 ([1]; read-out: IC50 of single drug): 2.04 µM; IC50 ([2]; read-out: IC50 of single drug): 3.2 µM; IC50 ([3]; read-out: IC50 of single drug): 1.68 µM
CD243 (ABC B1) monoclonal antibody (UIC 2), PE (ThermoFisher)				MDR1 binding ratio [5]: 1.2; MDR1 binding ratio [6]: 2.6; MDR1 binding ratio [7]: 16.1; MDR1 binding ratio [8]: 1.2
